Laboratory results reported in US20050245527A1, “Nitrogen containing heterocyclic compounds and medicines containing the same” (priority 2002, published 2005).
Where a name gives a salt, the structure may show the parent alone.

Tests used:
[1] = test system: left saphenous nerve of rats (ectopic firing); test: Inhibition of ectopic firing; type: in vivo; conditions: Rattus norvegicus, iv; rats with cut left saphenous nerve, urethane anesthesia, compound via catheter in right cervical vein, number of firings in 10 seconds; read-out: Inhibition of ectopic firing (ID50)
Protocol: <Inhibition of Ectopic Firing>
(1) The inhibitory effect on ectopic firing was evaluated by the following method, with reference to Burchiel, K J., Exp. Neurol., 102, 249-253 (1988).
(2) The left saphenous nerve of rats, in which ectopic firing was observed, was cut near the knee joint, and approximately 3 mm was cut off to avoid reattachment of the cut nerve. After more than a week, the left saphenous nerve was exposed under urethane (1 g/kg body weight) anesthesia, and the proximal part up to approximately 1 cm from the cut site was detached from the surrounding tissue. A catheter was inserted in the right cervical vein beforehand for administration of the compound.
(3) The detached nerve was placed on a platinum hook electrode and wetted with liquid paraffin to avoid drying of the nerve. The electrode was connected to a microelectrode amplifier, and the change in potential was recorded from an oscilloscope through an A/D converter onto a computer. The recorded nerve firing was evaluated based on the number of firings in 10 seconds, using analyzing software (AcqKnowledge).

[2] = test system: sodium channels; type: cell-based; conditions: read-out: IC50 (μM), sodium channel-inhibiting activity; rat fetal cultured hippocampal neurons, SBFI fluorescence in the presence of 4-aminopyridine, 5 minutes after addition, 1 μM tetrodotoxin = 100%

SMILES	ED50 [1] [mg/kg]	IC50 [2] [µM]
O=c1[nH]ccnc1CN1CCC(COc2ccccc2OC(F)(F)F)CC1 [Example 167, 3-[4-[2-(Trifluoromethoxy)phenoxymethyl]piperidino]methyl-1H-pyrazin-2-one]	< 0.5	2.3
O=c1[nH]ccnc1CN1CCC(CCc2cccc3ccoc23)CC1 [Example 146, 3-[4-[2-(Benzofuran-7-yl)ethyl]piperidino]methyl-1H-pyrazin-2-one]	< 0.5	2
O=C(Cc1c(F)cccc1C(F)(F)F)C1CCN(Cc2ncc[nH]c2=O)CC1 [Example 376, 3-[4-[2-[2-Fluoro-6-(trifluoromethyl)phenyl]acetyl]piperidino]methyl-1H-pyrazin-2-one]	< 0.5	1.1
O=c1[nH]ccnc1CN1CCCC(CCc2ccccc2F)C1 (centres unmarked) [Example 156, 3-[3-[2-(2-Fluorophenyl)ethyl]piperidino]methyl-1H-pyrazin-2-one]	0.5 to 1	4.5
O=c1nccc(CCN2CCC(COc3ccccc3F)CC2)[nH]1 [Example 181, 4-[2-[4-(2-Fluorophenoxymethyl)piperidino]ethyl]-3H-pyrimidin-2-one]	< 0.5	–
O=c1[nH]cccc1CN1CCC(CCc2ccccc2)(COc2ccccc2F)CC1 [Example 257, 3-[4-(2-Fluorophenoxymethyl)-4-(2-phenylethyl)piperidino]methyl-1H-pyridin-2-one]	< 0.5	–
O=c1ccnc(CN2CCC(COc3ccccc3F)CC2)[nH]1 [Example 137, 2-[4-(2-Fluorophenoxymethyl)piperidino]methyl-3H-pyrimidin-4-one]	0.5 to 1	–
Cc1ccccc1OCC1(CCc2ccccc2F)CCN(Cc2ccc[nH]c2=O)CC1 [Example 128, 3-[4-[2-(2-Fluorophenyl)ethyl]-4-(2-methylphenoxymethyl)piperidino]methyl-1H-pyridin-2-one]	0.5 to 1	–
O=c1[nH]ccnc1CCN1CCC(COc2ccccc2F)CC1 [Example 232, 3-[2-[4-(2-Fluorophenoxymethyl)piperidino]ethyl]-1H-pyrazin-2-one]	< 0.5	–
O=c1cncc(CCN2CCC(COc3ccc(F)cc3)CC2)[nH]1 [Example 246, 6-[2-[4-(4-Fluorophenoxymethyl)piperidino]ethyl]-1H-pyrazin-2-one]	0.5 to 1	–
Cc1ccccc1OCC1(O)CCN(Cc2ccc[nH]c2=O)CC1 [Example 252, 3-[4-Hydroxy-4-(2-methylphenoxymethyl)piperidino]methyl-1H-pyridin-2-one]	0.5 to 1	–
O=c1cncc(CCN2CCC(/C=C/c3ccccc3F)CC2)[nH]1 [Example 234, (E)-6-[2-[4-(2-(2-Fluorophenyl)vinyl]piperidino]ethyl]-1H-pyrazin-2-one]	0.5 to 1	–
Cc1ccccc1C#CC1(O)CCN(Cc2ccc[nH]c2=O)CC1 [Example 259, 3-[4-Hydroxy-4-[(2-methylphenyl)ethynyl]piperidino]methyl-1H-pyridin-2-one]	< 0.5	–
O=c1[nH]ccnc1CN1CCC(CC(F)c2ccccc2F)CC1 (centres unmarked) [Example 178, 3-[4-[2-Fluoro-2-(2-fluorophenyl)ethyl]piperidino]methyl-1H-pyrazin-2-one]	< 0.5	–
O=c1[nH]cncc1CN1CCC(COc2ccccc2F)CC1 [Example 230, 5-[4-(2-Fluorophenoxymethyl)piperidino]methyl-3H-pyrimidin-4-one]	< 0.5	–
O=c1[nH]ccnc1CN1CCC(/C=C/c2sccc2F)CC1 [Example 173, (E)-3-[4-[2-(3-Fluoro-2-thienyl)vinyl]piperidino]methyl-1H-pyrazin-2-one]	–	4.3
O=c1[nH]ccnc1CN1CCC(CO)(CCc2ccccc2)CC1 [Example 219, 3-[4-Hydroxymethyl-4-(2-phenylethyl)piperidino]methyl-1H-pyrazin-2-one]	–	1.6
O=c1[nH]ccnc1CN1CCCCC1CCOc1ccccc1F (centres unmarked) [Example 209, 3-[2-[2-(2-Fluorophenoxy)ethyl]piperidino]methyl-1H-pyrazin-2-one]	–	2.1
O=c1[nH]ccnc1CN1CCOC(CCc2ccccc2F)C1 (centres unmarked) [Example 340, 3-[3-[2-(2-Fluorophenyl)ethyl]morpholin-1-yl]methyl-1H-pyrazin-2-one]	–	7.1
O=c1cncc(CCN2CCC(COc3ccccc3)CC2)[nH]1 [Example 245, 6-[2-[4-(Phenoxymethyl)piperidino]ethyl]-1H-pyrazin-2-one]	–	4.4
CCOc1ccccc1OCC1CCN(Cc2ncc[nH]c2=O)CC1 [Example 165, 3-[4-(2-Ethoxyphenoxymethyl)piperidino]methyl-1H-pyrazin-2-one]	–	8.4
O=C(Cc1ccccc1F)C1CCN(CCc2cncc(=O)[nH]2)CC1 [Example 237, 6-[2-[4-[2-(2-Fluorophenyl)acetyl]piperidino]ethyl]-1H-pyrazin-2-one]	0.5 to 1	–

SMILES	ED50 [1] [mg/kg]	IC50 [2] [µM]
O=c1[nH]ccnc1CN1CCC(O)(C#Cc2ccccc2F)CC1 [Example 217, 3-[4-(2-Fluorophenyl)ethynyl-4-hydroxypiperidino]methyl-1H-pyrazin-2-one]	–	1.8
O=c1[nH]ccnc1CN1CCC(OCc2ccccc2F)CC1 [Example 141, 3-[4-(2-Fluorobenzyloxy)piperidino]methyl-1H-pyrazin-2-one]	< 0.5	–
O=c1[nH]ccnc1CN1CCOC(COc2ccccc2F)C1 (centres unmarked) [Example 342, 3-[3-(2-Fluorophenoxymethyl)morpholin-1-yl]methyl-1H-pyrazin-2-one]	–	3
O=C(CC1CCN(Cc2ncc[nH]c2=O)CC1)c1ccccc1F [Example 139, 3-[4-[2-(2-Fluorophenyl)-2-oxoethyl]piperidino]methyl-1H-pyrazin-2-one]	0.5 to 1	–
O=c1cncc(CCN2CCC(COc3ccccc3F)CC2)[nH]1 [Example 233, 6-[2-[4-(2-Fluorophenoxymethyl)piperidino]ethyl]-1H-pyrazin-2-one]	< 0.5	–
O=c1[nH]ccnc1CN1CCC(/C=C/c2ccccc2OCC2CCCCC2)CC1 [Example 412, (E)-3-[4-[2-[2-(Cyclohexylmethyloxy)phenyl]vinyl]piperidino]methyl-1H-pyrazin-2-one oxalate]	–	1.2
O=C1CN(Cc2ncc[nH]c2=O)CCC1CCc1ccccc1F (centres unmarked) [Example 371, 3-[4-[2-(2-Fluorophenyl)ethyl]-3-oxopiperidino]methyl-1H-pyrazin-2-one]	–	9
COc1ccccc1OCC1(C)CCN(Cc2ncc[nH]c2=O)CC1 [Example 356, 3-[4-(2-Methoxyphenoxymethyl)-4-methylpiperidino]methyl-1H-pyrazin-2-one]	–	2.9
CCOC(=O)C1(CCc2ccccc2)CCN(Cc2ccc[nH]c2=O)CC1 [Example 255, 3-[4-(Ethoxycarbonyl)-4-(2-phenylethyl)piperidino]methyl-1H-pyridin-2-one]	–	3.1
O=c1cncc(CCN2CCC(C#Cc3ccccc3F)CC2)[nH]1 [Example 244, 6-[2-[4-[(2-Fluorophenyl)ethynyl]piperidino]ethyl]-1H-pyrazin-2-one]	–	3.1
O=c1[nH]ccnc1CN1CCC(COc2ccc(F)cc2F)CC1 [Example 163, 3-[4-(2,4-Difluorophenoxymethyl)piperidino]methyl-1H-pyrazin-2-one]	< 0.5	–
CON=C(Cc1ccccc1F)C1CCN(Cc2ncc[nH]c2=O)CC1 [Example 203, 3-[4-[2-(2-Fluorophenyl)-1-(methoxyimino)ethyl]piperidino]methyl-1H-pyrazin-2-one]	–	2.3
O=c1[nH]cccc1CN1CCC(CCc2ccccc2F)(COc2ccccc2F)CC1 [Example 127, 3-[4-(2-Fluorophenoxymethyl)-4-[2-(2-fluorophenyl)ethyl]piperidino]methyl-1H-pyridin-2-one]	0.5 to 1	–
O=C(Cc1cc(F)ccc1F)C1CCN(Cc2ncc[nH]c2=O)CC1 [Example 194, 3-[4-[2-(2,5-Difluorophenyl)acetyl]piperidino]methyl-1H-pyrazin-2-one]	–	6.6
CCCOc1ccccc1CC(=O)C1CCN(Cc2ncc[nH]c2=O)CC1 [Example 348, 3-[4-[2-(2-n-Propoxyphenyl)acetyl]piperidino]methyl-1H-pyrazin-2-one]	–	2.6
CC1(COc2ccccc2Cl)CCN(Cc2ncc[nH]c2=O)CC1 [Example 354, 3-[4-(2-Chlorophenoxymethyl)-4-methylpiperidino]methyl-1H-pyrazin-2-one]	–	2.8
CCOC(=O)C1(CCc2ccccc2)CCN(Cc2ncc[nH]c2=O)CC1 [Example 216, 3-[4-(Ethoxycarbonyl)-4-(2-phenylethyl)piperidino]methyl-1H-pyrazin-2-one]	–	3.2
Cc1ccc(-c2ccccc2)n1CC1CCN(Cc2ncc[nH]c2=O)CC1 [Example 182, 3-[4-(2-Methyl-5-phenylpyrrol-1-yl)methyl-piperidino]methyl-1H-pyrazin-2-one]	–	7.8
O=c1cncc(CCN2CCC3(CC2)CC(Oc2ccccc2F)C3)[nH]1 [Example 119, 6-[2-[2-(2-Fluorophenoxy)-7-azaspiro[3.5]non-7-yl]ethyl]-1H-pyrazin-2-one]	–	8.4
Cc1ccccc1OCC1(C#N)CCN(Cc2ccc[nH]c2=O)CC1 [Example 122, 1-(2-Oxo-1,2-dihydro-3-pyridylmethyl)-4-(2-methylphenoxymethyl)piperidine-4-carbonitrile]	< 0.5	–
O=C(Cc1cccc(F)c1)C1CCN(Cc2ncc[nH]c2=O)CC1 [Example 191, 3-[4-[2-(3-Fluorophenyl)acetyl]piperidino]methyl-1H-pyrazin-2-one]	–	7.1
